Holding throughout (format): binding
Assay [1] has as its target T1, GlHsp90 (trans-spliced full-length heat shock protein 90) (Giardia duodenalis, UniProt A0A644F9H9).
T1 construct: gene GL50803_0098054; full length Hsp90, N terminus 6x His-tag (Methods text says purified HspN)
The assay is described as follows: intrinsic fluorescence quenching; also inhibits the purified ATPase (EC50 […]).

For assay [2], the target named is T1, GlHsp90 (trans-spliced full-length heat shock protein 90). The assay is described as follows: intrinsic fluorescence quenching; also ATPase by TLC with radiolabelled ATP (Km […]).
The target is the same in assay [3]. The assay is described as follows: intrinsic tryptophan fluorescence quenching (ex […] nm, em […] nm), single-site fit.

pKd: −log10 of the molar value.

T1 sequence (A0A644F9H9 entry or part of it): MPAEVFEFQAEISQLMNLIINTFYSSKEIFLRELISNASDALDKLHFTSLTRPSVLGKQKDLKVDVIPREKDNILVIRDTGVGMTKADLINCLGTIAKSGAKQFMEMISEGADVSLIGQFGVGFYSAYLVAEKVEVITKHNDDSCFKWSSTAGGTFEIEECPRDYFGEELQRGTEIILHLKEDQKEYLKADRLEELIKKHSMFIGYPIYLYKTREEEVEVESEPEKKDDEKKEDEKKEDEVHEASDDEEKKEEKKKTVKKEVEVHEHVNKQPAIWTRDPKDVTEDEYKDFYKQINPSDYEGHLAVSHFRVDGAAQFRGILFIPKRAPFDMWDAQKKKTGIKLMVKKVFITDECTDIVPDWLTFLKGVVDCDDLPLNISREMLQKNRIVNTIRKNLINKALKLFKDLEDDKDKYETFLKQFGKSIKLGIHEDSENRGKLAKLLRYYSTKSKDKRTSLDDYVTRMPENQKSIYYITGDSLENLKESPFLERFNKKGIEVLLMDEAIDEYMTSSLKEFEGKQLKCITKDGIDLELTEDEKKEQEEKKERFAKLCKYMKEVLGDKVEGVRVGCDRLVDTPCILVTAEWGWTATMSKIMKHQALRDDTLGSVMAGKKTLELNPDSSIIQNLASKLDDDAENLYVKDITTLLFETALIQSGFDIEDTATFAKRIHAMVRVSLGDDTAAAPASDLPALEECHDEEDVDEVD

For orientation: pKd means the Kd on a negative log10 scale, so that one unit is a factor of ten. Read a high pKd as a small Kd. For the compound `C=CCNC1=C2C[C@@H](C)C[C@H](OC)[C@H](O)[C@@H](C)/C=C(\C)[C@H](OC(N)=O)[C@@H](OC)/C=C\C=C(/C)C(=O)NC(=CC1=O)C2=O` [17AAG], the pKd in assay [1] was 4.77. In assay [2], `Nc1ncnc2c1ncn2[C@@H]1O[C@H](COP(=O)(O)OP(=O)(O)OP(=O)(O)O)[C@@H](O)[C@H]1O` [ATP] gave a pKd of 3.20. Compound `COC1=C2C[C@@H](C)C[C@H](OC)[C@H](O)[C@@H](C)/C=C(\C)[C@H](OC(N)=O)[C@@H](OC)/C=C\C=C(/C)C(=O)NC(=CC1=O)C2=O` [GA, Geldanamycin] had a negative-log Kd (pKd) in assay [3] of 5.82.

For the origin of these results see PMC4006730, “Trans-spliced Heat Shock Protein 90 Modulates Encystation in Giardia lamblia” (PLoS Neglected Tropical Diseases, 2014).
